Assay results as given in the supplement of paper PMC10307832.

How the values were obtained:
Experiment in all cases: relative viability (nuclei count vs DMSO), 5 days (fraction); higher = more cells survive
[1] = system: NCI-H1651
Procedure, shortened: (§1)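 Relative viability was taken as the ratio of nuclei in treated wells to nuclei in vehicle wells. Lung cancer cell lines in 1536-well plates received compounds by pin tool one day after seeding, either one drug alone or a fixed anchor-drug dose plus five library-drug doses (not always all listed) in √10 steps. Nuclei were counted on 4× images after 5 days of treatment, and values are medians of duplicate plates.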

[2] = system: NCI-H1437
Procedure, shortened: as §1

[3] = system: CAL-12T
Procedure, shortened: as §1

[4] = system: NCI-H358
Procedure, shortened: as §1

[5] = system: BEN
Procedure, shortened: as §1

[6] = system: SK-LU-1
Procedure, shortened: as §1

[7] = system: HCC-366
Procedure, shortened: as §1

[8] = system: NCI-H1734
Procedure, shortened: as §1

[9] = system: COR-L23
Procedure, shortened: as §1

[10] = system: LU99A
Procedure, shortened: as §1

[11] = system: NCI-H460
Procedure, shortened: as §1

[12] = system: LOU-NH91
Procedure, shortened: as §1

[13] = system: NCI-H441
Procedure, shortened: as §1

[14] = system: NCI-H2023
Procedure, shortened: as §1

[15] = system: NCI-H1355
Procedure, shortened: as §1

[16] = system: NCI-H1975
Procedure, shortened: as §1

[17] = system: NCI-H1650
Procedure, shortened: as §1

[18] = system: NCI-H2085
Procedure, shortened: as §1

[19] = system: NCI-H1793
Procedure, shortened: as §1

[20] = system: NCI-H838
Procedure, shortened: as §1

[21] = system: NCI-H2342
Procedure, shortened: as §1

Nc1ccn([C@@H]2O[C@H](CO)[C@@H](O)[C@@H]2O)c(=O)n1 [Cytarabine] + CC(=O)Nc1cccc(-n2c(=O)n(C3CC3)c(=O)c3c(Nc4ccc(I)cc4F)n(C)c(=O)c(C)c32)c1 [Trametinib] (partner 0.02 µM) gave a relative viability ([1]; first compound 0.005 µM) of 0.846, a relative viability ([1]; first compound 0.01581 µM) of 0.858 and a relative viability ([1]; first compound 0.05 µM) of 0.818. It also gave a relative viability ([1]; first compound 0.1581 µM) of 0.591, a relative viability ([1]; first compound 0.5 µM) of 0.384 and a relative viability ([2]; first compound 0.005 µM) of 0.503. For the same compound, the relative viability ([2]; first compound 0.01581 µM) was 0.406, the relative viability ([2]; first compound 0.05 µM) was 0.416 and the relative viability ([2]; first compound 0.1581 µM) was 0.238. It also gave a relative viability ([2]; first compound 0.5 µM) of 0.178, a relative viability ([3]; first compound 0.005 µM) of 0.411 and a relative viability ([3]; first compound 0.01581 µM) of 0.318. For the same compound, the relative viability ([3]; first compound 0.05 µM) was 0.326, the relative viability ([3]; first compound 0.1581 µM) was 0.22 and the relative viability ([3]; first compound 0.5 µM) was 0.22. The relative viability ([4]; first compound 0.005 µM) was 0.126, the relative viability ([4]; first compound 0.01581 µM) was 0.108 and the relative viability ([4]; first compound 0.05 µM) was 0.103. For the same compound, the relative viability ([4]; first compound 0.1581 µM) was 0.076, the relative viability ([4]; first compound 0.5 µM) was 0.0812 and the relative viability ([5]; first compound 0.005 µM) was 1.08. The relative viability ([5]; first compound 0.01581 µM) was 0.897, the relative viability ([5]; first compound 0.05 µM) was 0.781 and the relative viability ([5]; first compound 0.1581 µM) was 0.553. The relative viability ([5]; first compound 0.5 µM) was 0.372, the relative viability ([6]; first compound 0.005 µM) was 0.416 and the relative viability ([6]; first compound 0.01581 µM) was 0.454. For the same compound, the relative viability ([6]; first compound 0.05 µM) was 0.423, the relative viability ([6]; first compound 0.1581 µM) was 0.356 and the relative viability ([6]; first compound 0.5 µM) was 0.303. It also gave a relative viability ([7]; first compound 0.005 µM) of 0.276, a relative viability ([7]; first compound 0.01581 µM) of 0.33 and a relative viability ([7]; first compound 0.05 µM) of 0.178. The relative viability ([7]; first compound 0.1581 µM) was 0.0948, the relative viability ([7]; first compound 0.5 µM) was 0.086 and the relative viability ([8]; first compound 0.005 µM) was 0.361. It also gave a relative viability ([8]; first compound 0.01581 µM) of 0.264, a relative viability ([8]; first compound 0.05 µM) of 0.203 and a relative viability ([8]; first compound 0.1581 µM) of 0.132. The relative viability ([8]; first compound 0.5 µM) was 0.119, the relative viability ([9]; first compound 0.005 µM) was 0.71 and the relative viability ([9]; first compound 0.01581 µM) was 0.529. It also gave a relative viability ([9]; first compound 0.05 µM) of 0.546, a relative viability ([9]; first compound 0.1581 µM) of 0.304 and a relative viability ([9]; first compound 0.5 µM) of 0.203. It also gave a relative viability ([10]; first compound 0.005 µM) of 0.588, a relative viability ([10]; first compound 0.01581 µM) of 0.447 and a relative viability ([10]; first compound 0.05 µM) of 0.497. The relative viability ([10]; first compound 0.1581 µM) was 0.549, the relative viability ([10]; first compound 0.5 µM) was 0.544 and the relative viability ([11]; first compound 0.005 µM) was 0.13. The relative viability ([11]; first compound 0.01581 µM) was 0.111, the relative viability ([11]; first compound 0.05 µM) was 0.103 and the relative viability ([11]; first compound 0.1581 µM) was 0.0544. The relative viability ([11]; first compound 0.5 µM) was 0.0417, the relative viability ([12]; first compound 0.005 µM) was 0.758 and the relative viability ([12]; first compound 0.01581 µM) was 0.807. For the same compound, the relative viability ([12]; first compound 0.05 µM) was 0.699, the relative viability ([12]; first compound 0.1581 µM) was 0.657 and the relative viability ([12]; first compound 0.5 µM) was 0.644. The relative viability ([13]; first compound 0.005 µM) was 0.361, the relative viability ([13]; first compound 0.01581 µM) was 0.421 and the relative viability ([13]; first compound 0.05 µM) was 0.451. The relative viability ([13]; first compound 0.1581 µM) was 0.242, the relative viability ([13]; first compound 0.5 µM) was 0.199 and the relative viability ([14]; first compound 0.005 µM) was 0.463. The relative viability ([14]; first compound 0.01581 µM) was 0.253, the relative viability ([14]; first compound 0.05 µM) was 0.169 and the relative viability ([14]; first compound 0.1581 µM) was 0.104. The relative viability ([14]; first compound 0.5 µM) was 0.0963, the relative viability ([15]; first compound 0.005 µM) was 0.367 and the relative viability ([15]; first compound 0.01581 µM) was 0.38. For the same compound, the relative viability ([15]; first compound 0.05 µM) was 0.398, the relative viability ([15]; first compound 0.1581 µM) was 0.303 and the relative viability ([15]; first compound 0.5 µM) was 0.282. It also gave a relative viability ([16]; first compound 0.005 µM) of 0.34, a relative viability ([16]; first compound 0.01581 µM) of 0.267 and a relative viability ([16]; first compound 0.05 µM) of 0.631. For the same compound, the relative viability ([16]; first compound 0.1581 µM) was 0.25, the relative viability ([16]; first compound 0.5 µM) was 0.24 and the relative viability ([17]; first compound 0.005 µM) was 0.446. The relative viability ([17]; first compound 0.01581 µM) was 0.419, the relative viability ([17]; first compound 0.05 µM) was 0.452 and the relative viability ([17]; first compound 0.1581 µM) was 0.24. The relative viability ([17]; first compound 0.5 µM) was 0.158, the relative viability ([18]; first compound 0.005 µM) was 0.504 and the relative viability ([18]; first compound 0.01581 µM) was 0.552. The relative viability ([18]; first compound 0.05 µM) was 0.5, the relative viability ([18]; first compound 0.1581 µM) was 0.26 and the relative viability ([18]; first compound 0.5 µM) was 0.39. It also gave a relative viability ([19]; first compound 0.005 µM) of 0.489, a relative viability ([19]; first compound 0.01581 µM) of 0.405 and a relative viability ([19]; first compound 0.05 µM) of 0.398. The relative viability ([19]; first compound 0.1581 µM) was 0.266, the relative viability ([19]; first compound 0.5 µM) was 0.258 and the relative viability ([20]; first compound 0.005 µM) was 0.724. It also gave a relative viability ([20]; first compound 0.01581 µM) of 0.535, a relative viability ([20]; first compound 0.05 µM) of 0.543 and a relative viability ([20]; first compound 0.1581 µM) of 0.274. The relative viability ([20]; first compound 0.5 µM) was 0.246, the relative viability ([21]; first compound 0.005 µM) was 0.779 and the relative viability ([21]; first compound 0.01581 µM) was 0.825. For the same compound, the relative viability ([21]; first compound 0.05 µM) was 0.803, the relative viability ([21]; first compound 0.1581 µM) was 0.579 and the relative viability ([21]; first compound 0.5 µM) was 0.646.
